ChEMBL document CHEMBL1201862, “PubChem BioAssay data set” (2004)
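Method: 48-hour compound exposure of cells in 96-well plates, five concentrations, linear interpolation of endpoints. GI50: concentration for 50% inhibition of growth.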 The source made the active and inactive calls. No stated cut-off is given here; in the data, active = GI50 up to about 1.1 µM and inactive = higher.

Experiments:
Assay in all cases: growth of human tumour cells (NCI), 48 h
MDA-MB-435 = system: MDA-MB-435
HOP-62 = system: HOP-62
MDA-MB-231 = system: MDA-MB-231
SNB-19 = system: SNB-19
RPMI-8226 = system: RPMI-8226
NCI-H460 = system: NCI-H460
SK-MEL-2 = system: SK-MEL-2
HCT-15 = system: HCT-15
NCI/ADR-RES = system: NCI/ADR-RES
OVCAR-3 = system: OVCAR-3
HCC 2998 = system: HCC 2998
A549 = system: A549
OVCAR-4 = system: OVCAR-4
786-0 = system: 786-0
OVCAR-5 = system: OVCAR-5
LOX IMVI = system: LOX IMVI
SK-OV-3 = system: SK-OV-3
IGROV-1 = system: IGROV-1
SF-539 = system: SF-539

Row | SMILES | GI50 (MDA-MB-435) | GI50 (HOP-62) | GI50 (MDA-MB-231) | GI50 (SNB-19) | GI50 (RPMI-8226) | GI50 (NCI-H460) | GI50 (SK-MEL-2) | GI50 (HCT-15) [µM] | GI50 (NCI/ADR-RES) | GI50 (OVCAR-3) | GI50 (HCC 2998) | GI50 (A549) | GI50 (OVCAR-4) | GI50 (786-0) | GI50 (OVCAR-5) | GI50 (LOX IMVI) | GI50 (SK-OV-3) | GI50 (IGROV-1) | GI50 (SF-539)
1 | Cc1ccc(/C=C/C(=N/NC(=O)N/N=C(/C=C/c2ccc(C)cc2)C(C)C)C(C)C)cc1 | > 10 µM (inactive) | > 10 µM (inactive) | > 10 µM (inactive) | > 10 µM (inactive) | 3.11 µM (inactive) | > 10 µM (inactive) | > 10 µM (inactive) | > 10 | > 10 µM (inactive) | 3.93 µM (inactive) | > 10 µM (inactive) | > 10 µM (inactive) | 1.5 µM (inactive) | > 10 µM (inactive) | > 10 µM (inactive) | – | – | – | –
2 | CN(C)C1(N(C)C)Oc2c(c(=O)n(C)c(=O)n2C)C(c2ccc(F)cc2)C1(F)F (stereo unspecified) | > 100 µM (inactive) | > 100 µM (inactive) | > 100 µM (inactive) | > 100 µM (inactive) | > 100 µM (inactive) | > 100 µM (inactive) | > 100 µM (inactive) | > 100 | > 100 µM (inactive) | > 100 µM (inactive) | > 100 µM (inactive) | > 100 µM (inactive) | > 100 µM (inactive) | > 100 µM (inactive) | > 100 µM (inactive) | > 100 µM (inactive) | > 100 µM (inactive) | – | –
3 | CC1(C)O[C@@H](CP(c2cccc3ccccc23)c2cccc3ccccc23)[C@H](CP(c2cccc3ccccc23)c2cccc3ccccc23)O1 | > 100 µM (inactive) | > 100 µM (inactive) | > 100 µM (inactive) | > 100 µM (inactive) | – | > 100 µM (inactive) | > 100 µM (inactive) | > 100 | > 100 µM (inactive) | > 100 µM (inactive) | > 100 µM (inactive) | > 100 µM (inactive) | > 100 µM (inactive) | > 100 µM (inactive) | > 100 µM (inactive) | > 100 µM (inactive) | > 100 µM (inactive) | > 100 µM (inactive) | –
4 | O=C(O)Cn1nnc2c(=O)[nH][nH]c(=O)c21 | > 100 µM (inactive) | > 100 µM (inactive) | > 100 µM (inactive) | > 100 µM (inactive) | > 100 µM (inactive) | > 100 µM (inactive) | > 100 µM (inactive) | > 100 | > 100 µM (inactive) | > 100 µM (inactive) | > 100 µM (inactive) | > 100 µM (inactive) | > 10 µM (inactive) | > 100 µM (inactive) | > 100 µM (inactive) | > 100 µM (inactive) | – | – | –
5 | [O-][S+](c1ccc(O)cc1)c1ccc(O)cc1 | – | > 100 µM (inactive) | – | > 100 µM (inactive) | > 100 µM (inactive) | > 100 µM (inactive) | > 100 µM (inactive) | > 100 | – | > 100 µM (inactive) | > 100 µM (inactive) | > 100 µM (inactive) | > 100 µM (inactive) | > 100 µM (inactive) | > 100 µM (inactive) | > 100 µM (inactive) | > 100 µM (inactive) | > 100 µM (inactive) | > 100 µM (inactive)
6 | OC1[C@H]([C@H]2CCCC[C@@H]2O)CCC[C@@H]1[C@@H]1CCCC[C@H]1O (stereo partly specified) | – | > 100 µM (inactive) | – | > 100 µM (inactive) | > 100 µM (inactive) | > 100 µM (inactive) | > 100 µM (inactive) | > 100 | – | > 100 µM (inactive) | > 100 µM (inactive) | > 100 µM (inactive) | > 100 µM (inactive) | > 100 µM (inactive) | > 100 µM (inactive) | > 100 µM (inactive) | > 100 µM (inactive) | > 100 µM (inactive) | > 100 µM (inactive)
7 | Cn1c(=O)ccc2cc(C(=O)c3ccccc3)ccc21 | – | > 100 µM (inactive) | – | 68.1 µM (inactive) | 47.5 µM (inactive) | > 100 µM (inactive) | > 100 µM (inactive) | 53.3 | – | 44.4 µM (inactive) | > 100 µM (inactive) | 71.1 µM (inactive) | 46.9 µM (inactive) | 83.2 µM (inactive) | > 100 µM (inactive) | 57.3 µM (inactive) | > 100 µM (inactive) | 24.7 µM (inactive) | 42.3 µM (inactive)
8 | O=CCC1CCCCC1 | > 100 µM (inactive) | > 100 µM (inactive) | > 100 µM (inactive) | > 100 µM (inactive) | > 100 µM (inactive) | > 100 µM (inactive) | > 100 µM (inactive) | > 100 | > 100 µM (inactive) | > 100 µM (inactive) | – | > 100 µM (inactive) | > 100 µM (inactive) | > 100 µM (inactive) | > 100 µM (inactive) | > 100 µM (inactive) | > 100 µM (inactive) | > 100 µM (inactive) | > 100 µM (inactive)
